Experiment [1] has as its target T1, recombinant PTP1B catalytic domain (Homo sapiens, UniProt P18031).
T1 construct: The recombinant PTP1B catalytic domain was expressed and purified according to a previous report; made in house
T1 sequence (P18031 3-277 limits assumed): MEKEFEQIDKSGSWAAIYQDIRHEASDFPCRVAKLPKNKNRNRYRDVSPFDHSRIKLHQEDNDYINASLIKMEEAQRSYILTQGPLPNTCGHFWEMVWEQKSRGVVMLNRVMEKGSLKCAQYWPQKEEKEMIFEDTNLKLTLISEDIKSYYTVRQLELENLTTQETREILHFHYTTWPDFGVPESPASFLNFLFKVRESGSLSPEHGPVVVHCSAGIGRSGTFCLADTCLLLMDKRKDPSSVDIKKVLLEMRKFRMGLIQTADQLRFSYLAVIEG
Put plainly: PTP1B inhibitory activity assay (pNPP hydrolysis). The experiment is classed as biochemical. Particulars: pNPP substrate, 30 °C, pH 6.5; IC50 ≥ 50 μM was considered inactive. How it is done:
The recombinant PTP1B catalytic domain was expressed and purified according to a previous report. The enzymatic activities of the PTP1B catalytic domain were determined at 30 °C by monitoring the hydrolysis of pNPP. Dephosphorylation of pNPP generated the product pNP, which was monitored at an absorbance of 405 nm with an EnVision multilabel plate reader (Perkin–Elmer Life Sciences, Boston, MA). In a typical […] assay mixture containing 50 mmol/L 3-morpholinopropanesulfonic acid, pH 6.5, 2 mmol/L pNPP, and 30 nmol/L recombinant PTP1B, activities were continuously monitored and the initial rate of hydrolysis was determined by using the early linear region of the enzymatic reaction kinetic curve.

The subject of experiment [2] is NF-κB signaling pathway in stable HEK293/NF-κB cells. Put plainly: NF-κB signaling pathway inhibitory activity assay (luciferase reporter, TNF-α stimulation). The experiment is classed as cell-based. Particulars: Homo sapiens, luciferase read after 6 h. How it is done: NF-κB signaling pathway inhibitory activity was evaluated according to the previously reported protocol. Stable HEK293/NF-κB cells were plated into 384-well plates at a concentration of approximate 2500 cells per well. After culturing overnight, compounds were added to the medium at a final concentration of 0.1 μg/mL. HEK293/NF-κB cells were seeded into 96-well cell culture plates (Corning, NY, USA) and allowed to grow for 24 h. The cells were then treated with compounds, followed by stimulation with TNF-α. 6 h later, the luciferase substrate was added to each well, and the released luciferin signal was detected using an EnVision microplate reader. The IC50 was calculated with Prism 4 software (Graphpad, San Diego, CA) from the nonlinear curve fitting of the percentage of inhibition (% inhibition) versus the inhibitor concentration [I] by using the following equation: % inhibition = 100/(1 + [IC50/[I]]^k), where k is the Hill coefficient.
Background: A reporter such as luciferase makes a cellular process visible.

These results are taken from article PMC6423584, “New sesquiterpenoids from the South China Sea soft corals Clavularia viridis and Lemnalia flava” (Beilstein Journal of Organic Chemistry, 2019).

A value given as a limit tells only on which side of the number the result lay.

By IC50 is commonly meant the point on the concentration scale where inhibition reaches its midpoint. In the case of `Cc1cc(Br)c(C2(C)CCC(=CBr)C2C)cc1O` (stereo not shown) [compound 1, isobromolaurenisol], the IC50 was 18.8 µM in experiment [1] and 19.9 µM in experiment [2].

As for `C=C1CC[C@H]2[C@@H]([C@H]3[C@@H](C)CC[C@@]13O)C2(C)C` [compound 7, 1-hydroxyalloaromadendrene], the IC50 in experiment [1] is greater than 50 µM.

Take `C=C1CCC(C)(c2cc(O)c(C)cc2Br)C1C` (stereo not shown) [compound 2, clalaurenol A]: the IC50 in experiment [1] is 21.8 µM; in experiment [2] it was 6.8 µM.

Consider `C=C1CCC2C(C3C(C)CCC13O)C2(C)C` (stereo not shown) [compound 6, claaromadendrene], for which the IC50 in experiment [1] was greater than 50 µM.

As for `C/C1=C\CC(C)(C)/C=C/C[C@@]2(C)O[C@@H]2CC1` [compound 8, humulene epoxide II], the IC50 in experiment [1] was greater than 50 µM.

As for `Cc1cc(Br)c([C@]2(C)CC=CC2(C)C)cc1O` [compound 5, cupalaurenol], in experiment [1], the IC50 is greater than 50 µM.

`CC(C)C[C@H](NC(=O)[C@H](Cc1ccccc1)NC(=O)c1cnccn1)B(O)O` [bortezomib, reference compound]: half-maximal inhibition in experiment [2] (IC50) was put at 14 µM.

Take `Cc1ccc(C2(C)CCC(=CBr)C2C)c(O)c1` (stereo not drawn) [compound 3, ent-laurenisol]: in experiment [1], the IC50 is greater than 50 µM and the “IC50 (μM) PTP1B” value was “inactive”.

Take `Cc1cc(O)c(C2(C)CCC(=CBr)C2C)cc1Br` (stereo not shown) [compound 4, clalaurenol B]: the IC50 in experiment [1] is 15.6 µM; in experiment [2], 7.3 µM.
